# Tested on: MV-4-11 cells
# Experiment: Gene expression microarray analysis (Affymetrix PrimeView) and GSEA
# Type: cell-based, human
# Set-up: RFU PODN (11730768_x_at) / Fold change /veh PODN (11730768_x_at) / RFU LINC00158 (11744669_a_at) / Fold change /veh LINC00158 (11744669_a_at) / RFU DUSP10 (11751237_a_at) / Fold change /veh DUSP10 (11751237_a_at) / RFU ID3 (11757404_x_at) / Fold change /veh ID3 (11757404_x_at) / RFU PLEKHG5 (11737974_s_at) / Fold change /veh PLEKHG5 (11737974_s_at) / RFU LRRC4B (11730491_at) / Fold change /veh LRRC4B (11730491_at) / RFU GIMAP4 (11747438_a_at) / Fold change /veh GIMAP4 (11747438_a_at) / RFU KRT8 (11758183_x_at) / Fold change /veh KRT8 (11758183_x_at) / RFU CNN1 (11734310_a_at) / Fold change /veh CNN1 (11734310_a_at) / RFU VPS37D (11726825_at) / Fold change /veh VPS37D (11726825_at) / RFU C10orf10 (11716522_x_at) / Fold change /veh C10orf10 (11716522_x_at) / RFU KIR2DL2 /// KIR2DL4 /// KIR2DL5A /// KIR2DL5B /// KIR2DS1 /// KIR2DS2 /// KIR2DS3 /// KIR2DS4 /// KIR3DL3 /// KIR3DL3 /// KIR3DS1 (11738374_at) / Fold change /veh KIR2DL2 /// KIR2DL4 /// KIR2DL5A /// KIR2DL5B /// KIR2DS1 /// KIR2DS2 /// KIR2DS3 /// KIR2DS4 /// KIR3DL3 /// KIR3DL3 /// KIR3DS1 (11738374_at) / RFU C1QL1 (11718748_at) / Fold change /veh C1QL1 (11718748_at) / RFU TMPRSS4 (11747572_a_at) / Fold change /veh TMPRSS4 (11747572_a_at) / RFU HAMP (11756126_x_at) / Fold change /veh HAMP (11756126_x_at) / RFU RNFT2 (11725882_a_at) / Fold change /veh RNFT2 (11725882_a_at) / RFU NR4A2 (11747474_a_at) / Fold change /veh NR4A2 (11747474_a_at) / RFU ABCC12 (11746883_a_at) / Fold change /veh ABCC12 (11746883_a_at) / RFU TMEM136 (11760407_x_at) / Fold change /veh TMEM136 (11760407_x_at) / RFU CLDN22 /// WWC2 (11732394_at) / Fold change /veh CLDN22 /// WWC2 (11732394_at) / RFU HLA-DPB1 (11760878_x_at) / Fold change /veh HLA-DPB1 (11760878_x_at) / RFU SPINT1 (11716480_a_at) / Fold change /veh SPINT1 (11716480_a_at) / RFU GAP43 (11754022_s_at) / Fold change /veh GAP43 (11754022_s_at) / RFU A4GNT (11735810_at) / Fold change /veh A4GNT (11735810_at) / RFU PRB3 (11715151_x_at) / Fold change /veh PRB3 (11715151_x_at) / RFU TUBB4B (11761932_at) / Fold change /veh TUBB4B (11761932_at) / RFU CAPN14 (11732068_a_at) / Fold change /veh CAPN14 (11732068_a_at) / RFU TMCC2 (11721928_a_at) / Fold change /veh TMCC2 (11721928_a_at) / RFU IRGQ (11745062_a_at) / Fold change /veh IRGQ (11745062_a_at) / RFU FAM174B (11720279_a_at) / Fold change /veh FAM174B (11720279_a_at) / RFU TMPRSS4 (11748680_a_at) / Fold change /veh TMPRSS4 (11748680_a_at) / RFU FAM212B (11763350_a_at) / Fold change /veh FAM212B (11763350_a_at) / RFU PLEKHG5 (11743358_a_at) / Fold change /veh PLEKHG5 (11743358_a_at) / RFU ZSCAN30 (11745921_a_at) / Fold change /veh ZSCAN30 (11745921_a_at) / RFU CMKLR1 (11741424_a_at) / Fold change /veh CMKLR1 (11741424_a_at) / RFU LOC101060620 /// MAPK8IP1 (11723275_at) / Fold change /veh LOC101060620 /// MAPK8IP1 (11723275_at) / RFU SPTSSB (11747773_x_at) / Fold change /veh SPTSSB (11747773_x_at) / RFU PRSS12 (11739890_at) / Fold change /veh PRSS12 (11739890_at) / RFU BIN1 (11741810_x_at) / Fold change /veh BIN1 (11741810_x_at) / RFU WNT11 (11732464_a_at) / Fold change /veh WNT11 (11732464_a_at) / RFU C10orf10 (11716521_a_at) / Fold change /veh C10orf10 (11716521_a_at) / RFU C5orf56 (11738089_at) / Fold change /veh C5orf56 (11738089_at) / RFU CYB561 (11721691_x_at) / Fold change /veh CYB561 (11721691_x_at) / RFU ANKRD19P (11752326_a_at) / Fold change /veh ANKRD19P (11752326_a_at) / RFU OR2T12 /// OR2T33 /// OR2T8 (11738714_s_at) / Fold change /veh OR2T12 /// OR2T33 /// OR2T8 (11738714_s_at) / RFU VCAN (11748164_a_at) / Fold change /veh VCAN (11748164_a_at) / RFU JSRP1 (11732532_at) / Fold change /veh JSRP1 (11732532_at) / RFU KRTAP10-11 (11738290_x_at) / Fold change /veh KRTAP10-11 (11738290_x_at) / RFU MYO3A (11730013_a_at) / Fold change /veh MYO3A (11730013_a_at) / RFU EBF3 (11725865_a_at) / Fold change /veh EBF3 (11725865_a_at) / RFU CAMK2N1 (11719241_x_at) / Fold change /veh CAMK2N1 (11719241_x_at) / RFU C5orf56 (11738088_a_at) / Fold change /veh C5orf56 (11738088_a_at) / RFU OLFML3 (11715873_a_at) / Fold change /veh OLFML3 (11715873_a_at) / RFU LOC100653217 /// NTM (11731650_a_at) / Fold change /veh LOC100653217 /// NTM (11731650_a_at) / RFU MAPK11 (11762145_a_at) / Fold change /veh MAPK11 (11762145_a_at) / RFU FIZ1 (11724087_x_at) / Fold change /veh FIZ1 (11724087_x_at) / RFU OASL (11726364_x_at) / Fold change /veh OASL (11726364_x_at) / RFU SOX15 (11748057_x_at) / Fold change /veh SOX15 (11748057_x_at) / RFU CD79A (11719716_a_at) / Fold change /veh CD79A (11719716_a_at) / RFU HIST1H1D (11736915_at) / Fold change /veh HIST1H1D (11736915_at) / RFU CASKIN2 (11723855_a_at) / Fold change /veh CASKIN2 (11723855_a_at) / RFU LOC730098 (11760151_x_at) / Fold change /veh LOC730098 (11760151_x_at) / RFU OR4N2 (11742367_at) / Fold change /veh OR4N2 (11742367_at) / RFU PRRT2 (11749266_a_at) / Fold change /veh PRRT2 (11749266_a_at) / RFU SNX32 (11753110_a_at) / Fold change /veh SNX32 (11753110_a_at) / RFU CDHR5 (11726645_a_at) / Fold change /veh CDHR5 (11726645_a_at) / RFU RCAN1 (11760418_a_at) / Fold change /veh RCAN1 (11760418_a_at) / RFU FAM167A (11723789_a_at) / Fold change /veh FAM167A (11723789_a_at) / RFU FAM26E (11764081_at) / Fold change /veh FAM26E (11764081_at) / RFU ISYNA1 (11749810_s_at) / Fold change /veh ISYNA1 (11749810_s_at) / RFU ACY1 (11761880_at) / Fold change /veh ACY1 (11761880_at) / RFU 11764098_at / Fold change /veh 11764098_at / RFU SAMD14 (11745864_x_at) / Fold change /veh SAMD14 (11745864_x_at) / RFU NPB (11741838_a_at) / Fold change /veh NPB (11741838_a_at) / RFU TMPRSS6 (11731388_a_at) / Fold change /veh TMPRSS6 (11731388_a_at) / RFU KRTAP10-2 (11738614_at) / Fold change /veh KRTAP10-2 (11738614_at) / RFU ARHGAP8 /// PRR5-ARHGAP8 (11727945_x_at) / Fold change /veh ARHGAP8 /// PRR5-ARHGAP8 (11727945_x_at) / RFU KRTAP5-7 /// NADSYN1 (11734609_at) / Fold change /veh KRTAP5-7 /// NADSYN1 (11734609_at) / RFU RASL12 (11751679_a_at) / Fold change /veh RASL12 (11751679_a_at) / RFU CDKN2B (11736163_a_at) / Fold change /veh CDKN2B (11736163_a_at) / RFU PRF1 (11729649_at) / Fold change /veh PRF1 (11729649_at) / RFU, ZNF638 /// ZNF638-IT1 / Fold change vs veh, ZNF638 /// ZNF638-IT1 / RFU, PANK3 / Fold change vs veh, PANK3 / RFU, SH3YL1 / Fold change vs veh, SH3YL1 / RFU, ZEB2 / Fold change vs veh, ZEB2 / RFU, NRIP1 / Fold change vs veh, NRIP1 / RFU, PTTG1IP / Fold change vs veh, PTTG1IP / RFU, CAPN2 / Fold change vs veh, CAPN2 / RFU, MED14 / Fold change vs veh, MED14 / RFU, SNORA58 / Fold change vs veh, SNORA58 / RFU, C1orf63 / Fold change vs veh, C1orf63 / RFU, LRRFIP1 / Fold change vs veh, LRRFIP1 / RFU, NDUFAF7 / Fold change vs veh, NDUFAF7 / RFU, SLC12A2 / Fold change vs veh, SLC12A2 / RFU, IBTK / Fold change vs veh, IBTK / RFU, ESF1 / Fold change vs veh, ESF1 / Fold change vs veh, TMEM50B / RFU, TAOK1 / Fold change vs veh, TAOK1 / RFU, ACBD3 / Fold change vs veh, ACBD3 / RFU, TMA16 / Fold change vs veh, TMA16 / RFU, RWDD3 / Fold change vs veh, RWDD3 / RFU, BCAT1 / Fold change vs veh, BCAT1 / RFU, EDEM3 / Fold change vs veh, EDEM3 / RFU, TMEM33 / Fold change vs veh, TMEM33 / RFU, WDR75 / Fold change vs veh, WDR75 / RFU, AHCTF1 / Fold change vs veh, AHCTF1 / RFU, TFRC / Fold change vs veh, TFRC / RFU, ZDHHC17 / Fold change vs veh, ZDHHC17 / RFU, NOM1 / Fold change vs veh, NOM1 / RFU, ARL8B / Fold change vs veh, ARL8B / RFU, ZBTB11 / Fold change vs veh, ZBTB11 / RFU, TAMM41 / Fold change vs veh, TAMM41 / RFU, KIAA1704 /// LOC100996395 / Fold change vs veh, KIAA1704 /// LOC100996395 / RFU, ING1 / Fold change vs veh, ING1 / RFU, TRMT61B / Fold change vs veh, TRMT61B / RFU, FUBP3 / Fold change vs veh, FUBP3 / RFU, TP53 / Fold change vs veh, TP53 / RFU, TNKS2 / Fold change vs veh, TNKS2 / RFU, ZFP14 / Fold change vs veh, ZFP14 / RFU, ACTR2 / Fold change vs veh, ACTR2 / RFU, PPP3R1 / Fold change vs veh, PPP3R1 / RFU, PIK3R1 / Fold change vs veh, PIK3R1 / RFU, HNRNPA1 / Fold change vs veh, HNRNPA1 / RFU, RNF170 / Fold change vs veh, RNF170 / RFU, ZNF28 / Fold change vs veh, ZNF28 / RFU, RNGTT / Fold change vs veh, RNGTT / RFU, OGT / Fold change vs veh, OGT / RFU, BRD1 / Fold change vs veh, BRD1 / RFU, MARS / Fold change vs veh, MARS / RFU, ZNF655 / Fold change vs veh, ZNF655 / RFU, FAHD1 / Fold change vs veh, FAHD1 / RFU, BDP1 / Fold change vs veh, BDP1 / RFU, LRRCC1 / Fold change vs veh, LRRCC1 / RFU, ARID1A / Fold change vs veh, ARID1A / RFU, ZNF146 / Fold change vs veh, ZNF146 / RFU, ZNF330 / Fold change vs veh, ZNF330 / RFU, GPN3 / Fold change vs veh, GPN3 / RFU, C9orf123 / Fold change vs veh, C9orf123 / RFU, N4BP2L2 / Fold change vs veh, N4BP2L2 / RFU, ARFIP1 / Fold change vs veh, ARFIP1 / RFU, FAM179B / Fold change vs veh, FAM179B / RFU, BCL10 / Fold change vs veh, BCL10 / RFU, UHRF1BP1L / Fold change vs veh, UHRF1BP1L / RFU, BET1 / Fold change vs veh, BET1 / RFU, CNOT2 / Fold change vs veh, CNOT2 / RFU, ZNF268 / Fold change vs veh, ZNF268 / Fold change vs veh, ZNF507 / RFU, DGCR2 / Fold change vs veh, DGCR2 / RFU, WDSUB1 / Fold change vs veh, WDSUB1 / Fold change vs veh, HSP90B1 /// MIR3652 / RFU, ADSS / Fold change vs veh, ADSS / RFU, GK / Fold change vs veh, GK / RFU, ZNF148 / Fold change vs veh, ZNF148 / RFU, TAF9 / Fold change vs veh, TAF9 / RFU, SLC1A5 / Fold change vs veh, SLC1A5 / RFU, SLMO2 / Fold change vs veh, SLMO2 / RFU, ABCC4 / Fold change vs veh, ABCC4 / RFU, LOC101060439 /// RAP1B / Fold change vs veh, LOC101060439 /// RAP1B / RFU, RFX7 / Fold change vs veh, RFX7 / RFU, GTPBP10 / Fold change vs veh, GTPBP10 / RFU, CNEP1R1 / Fold change vs veh, CNEP1R1 / RFU, BIVM-ERCC5 /// ERCC5 / Fold change vs veh, BIVM-ERCC5 /// ERCC5 / RFU, ILF3 / Fold change vs veh, ILF3 / RFU 11762660_at / Fold change /veh 11762660_at / RFU VCAN (11757783_s_at) / Fold change /veh VCAN (11757783_s_at) / RFU DDX43 (11728927_at) / Fold change /veh DDX43 (11728927_at) / RFU KRT8 (11758188_x_at) / Fold change /veh KRT8 (11758188_x_at) / RFU NKD1 (11759106_at) / Fold change /veh NKD1 (11759106_at) / RFU SRD5A1 (11742802_a_at) / Fold change /veh SRD5A1 (11742802_a_at) / RFU TPSAB1 /// TPSB2 (11721975_s_at) / Fold change /veh TPSAB1 /// TPSB2 (11721975_s_at) / RFU GSTM3 (11746129_a_at) / Fold change /veh GSTM3 (11746129_a_at) / RFU IL23R (11737362_x_at) / Fold change /veh IL23R (11737362_x_at) / RFU TMEM51 (11727254_a_at) / Fold change /veh TMEM51 (11727254_a_at) / RFU PIWIL2 (11732686_x_at) / Fold change /veh PIWIL2 (11732686_x_at) / RFU ORM1 (11744905_x_at) / Fold change /veh ORM1 (11744905_x_at) / RFU CCDC152 (11743942_at) / Fold change /veh CCDC152 (11743942_at) / RFU ECM1 (11717891_a_at) / Fold change /veh ECM1 (11717891_a_at) / RFU IL23R (11748794_a_at) / Fold change /veh IL23R (11748794_a_at) / RFU TNFAIP8L3 (11732012_x_at) / Fold change /veh TNFAIP8L3 (11732012_x_at) / RFU MBOAT4 (11741988_at) / Fold change /veh MBOAT4 (11741988_at) / RFU 11764193_at / Fold change /veh 11764193_at / RFU TMEM53 (11763286_at) / Fold change /veh TMEM53 (11763286_at) / RFU MAGEB2 (11727129_at) / Fold change /veh MAGEB2 (11727129_at) / RFU TMEM200A (11744735_a_at) / Fold change /veh TMEM200A (11744735_a_at) / RFU CCDC152 (11751479_a_at) / Fold change /veh CCDC152 (11751479_a_at) / RFU FAM211A (11726209_a_at) / Fold change /veh FAM211A (11726209_a_at) / RFU RGS16 (11746705_a_at) / Fold change /veh RGS16 (11746705_a_at) / RFU VCAN (11755009_s_at) / Fold change /veh VCAN (11755009_s_at) / RFU RHOB (11743442_s_at) / Fold change /veh RHOB (11743442_s_at) / RFU RGS16 (11720943_a_at) / Fold change /veh RGS16 (11720943_a_at) / RFU RGS16 (11720944_at) / Fold change /veh RGS16 (11720944_at) / RFU, VPS4B / Fold change vs veh, VPS4B / RFU, CREB1 / Fold change vs veh, CREB1 / RFU, DNAJC13 / Fold change vs veh, DNAJC13 / RFU, GNAQ / Fold change vs veh, GNAQ / RFU, CDK5R1 / Fold change vs veh, CDK5R1 / RFU, ZRANB3 / Fold change vs veh, ZRANB3 / RFU, CUL4A / Fold change vs veh, CUL4A / RFU, CCNY / Fold change vs veh, CCNY / RFU, UFL1 / Fold change vs veh, UFL1 / RFU, COG3 / Fold change vs veh, COG3 / RFU, DIAPH2 / Fold change vs veh, DIAPH2 / RFU, SKA2 / Fold change vs veh, SKA2 / RFU, AFF3 / Fold change vs veh, AFF3 / RFU, LMF1 / Fold change vs veh, LMF1 / RFU, IPO11 / Fold change vs veh, IPO11 / RFU, DFFB / Fold change vs veh, DFFB / RFU, FOXP1 / Fold change vs veh, FOXP1 / RFU, CARD8 / Fold change vs veh, CARD8 / RFU, STRN3 / Fold change vs veh, STRN3 / RFU, ADK / Fold change vs veh, ADK / RFU, RASSF2 / Fold change vs veh, RASSF2 / RFU, WIPF1 / Fold change vs veh, WIPF1 / RFU, LARP1B / Fold change vs veh, LARP1B / RFU, RASA1 / Fold change vs veh, RASA1 / RFU, RB1 / Fold change vs veh, RB1 / RFU, PPFIA1 / Fold change vs veh, PPFIA1 / RFU, MAT2A / Fold change vs veh, MAT2A / RFU, CCT5 / Fold change vs veh, CCT5 / RFU, WDR92 / Fold change vs veh, WDR92 / RFU, CUX1 / Fold change vs veh, CUX1 / RFU, TTC7A / Fold change vs veh, TTC7A / RFU, TMEM135 / Fold change vs veh, TMEM135 / RFU, DEPTOR / Fold change vs veh, DEPTOR / RFU, CPM / Fold change vs veh, CPM / RFU, DNAJB6 / Fold change vs veh, DNAJB6 / RFU, CACNA2D3 / Fold change vs veh, CACNA2D3 / RFU, DTX4 / Fold change vs veh, DTX4 / RFU, TFCP2 / Fold change vs veh, TFCP2 / RFU, GMCL1 /// GMCL1P1 / Fold change vs veh, GMCL1 /// GMCL1P1 / RFU, AEBP2 / Fold change vs veh, AEBP2 / RFU, SNHG1 /// SNORD22 /// SNORD25 /// SNORD26 /// SNORD27 /// SNORD28 /// SNORD29 /// SNORD31 / Fold change vs veh, SNHG1 /// SNORD22 /// SNORD25 /// SNORD26 /// SNORD27 /// SNORD28 /// SNORD29 /// SNORD31 / Fold change (Aza/veh), C12orf56 (ProbeSet 11735607_a_at) / Fold change (ACY-1035/veh), C12orf56 (ProbeSet 11735607_a_at) / Fold change (Aza/veh), FGFR1OP (ProbeSet 11751329_s_at) / Fold change (ACY-1035/veh), FGFR1OP (ProbeSet 11751329_s_at) / Fold change (Aza/veh), VPS36 (ProbeSet 11739960_a_at) / Fold change (ACY-1035/veh), VPS36 (ProbeSet 11739960_a_at) / RFU SYPL1 (11715823_x_at) / Fold change /veh SYPL1 (11715823_x_at) / RFU IGFBP7 (11715501_s_at) / Fold change /veh IGFBP7 (11715501_s_at) / RFU REEP3 (11722064_at) / Fold change /veh REEP3 (11722064_at) / RFU IGLL1 (11728026_x_at) / Fold change /veh IGLL1 (11728026_x_at): dose or concentration left out as unconfirmed
# Details: ProbeSet 11722022_s_at; LIST D
smiles,measurement,value
Nc1ccc(-c2cccs2)cc1NC(=O)c1ccc2c(c1)cc(C1CC1)n2CCN1CCOCC1 [ACY-1035],"RFU, CDK5R1",47.94 RFU

# — publication PMC5218480 (PLoS ONE, 2017)
